# Data from PubChem BioAssay AID743092 (The Scripps Research Institute Molecular Screening Center, 2013).
# Calls of active or inactive are those of the source. How the calls were made is not given here.
# System: counterscreen cell line, fluorescence, non-specific activators
# Assay: non-specific activators in counterscreen cell line, dose response, counter-screen for GalR3 antagonist project, fluorescence, late stage (AID 743092)
row,Compound,IC50
1,COc1ccc(CN2CCC(C(=O)Nc3ccc(Oc4ccccc4)nc3)CC2)cc1F,> 29.9 µM (inactive)
2,CC(C)(C)c1ccc(C(=O)Nc2ccc(Oc3cccnc3)nc2)cc1,> 29.9 µM (inactive)
3,O=C(CSc1nnc(Cn2nnc3ccccc32)o1)N(Cc1ccc(F)cc1)c1ccccc1,> 29.9 µM (inactive)
4,O=S(=O)(NCc1ccncc1)c1ccc(Br)s1,> 29.9 µM (inactive)
5,Cc1ccc(Oc2ccc(OCC(=O)Nc3ccncc3)cc2)cc1,> 29.9 µM (inactive)
6,CC(C)(C)c1ccc(-n2ncc3c2CCCC3NC(=O)C2(C(N)=O)CC2)cc1 (configuration not stated),> 29.9 µM (inactive)
7,CC(=O)c1ccc(N2CCN(C(=S)Nc3ccc(Oc4ccccc4)cc3)CC2)cc1,> 29.9 µM (inactive)
8,Cc1nn(C)c(Nc2ccc(Br)cc2)c1Br,> 29.9 µM (inactive)
9,NC(=O)c1nnn(Cc2cc(Cl)c(C(=O)c3ccc(Cl)cc3)c(Cl)c2)c1N,> 29.9 µM (inactive)
10,CCOc1cc(S(=O)(=O)NCc2ccncc2)ccc1Cl,> 29.9 µM (inactive)
11,COc1ccc(CCNc2ncnc3sccc23)cc1OC,> 29.9 µM (inactive)
12,COc1cccc2[nH]c3c(N4CCC(C)CC4)ncnc3c12,> 29.9 µM (inactive)
13,COc1ccc(CN(C)c2ccc(S(=O)(=O)N3CCN(C)CC3)cc2[N+](=O)[O-])cc1OC,> 29.9 µM (inactive)
14,Cc1nn(C)c(C)c1CN(C)S(=O)(=O)c1ccc2ccccc2c1,> 29.9 µM (inactive)
15,S=C(NCCc1ccccc1)Nc1cccc2cnccc12,> 29.9 µM (inactive)
16,COc1ccc(-n2c(C)cc(C(=O)COC(=O)Cn3cnc4ccccc43)c2C)cc1,> 29.9 µM (inactive)
17,Cc1ccccc1-c1cc(C(=O)Nc2sc(C(=O)OC(C)C)c(C)c2C#N)c2ccccc2n1,> 29.9 µM (inactive)
18,CCCOc1ccc(CSc2nc3ccccc3[nH]2)cc1,> 29.9 µM (inactive)
19,Cc1cc(CSc2ccccc2)ccc1NC(=O)c1ccc(CN2CCOCC2)cc1,> 29.9 µM (inactive)

row,Compound,IC50
1,Nc1cc(-c2ccc(Br)cc2)nn1Cc1ccccc1,> 29.9 µM (inactive)
2,NC(=O)c1c(-c2ccc(Cl)cc2Cl)csc1NC(=O)Cc1ccccc1,> 29.9 µM (inactive)
3,COc1ccc(C(=O)CSc2nnc(Cn3cnc4ccccc43)o2)cc1,> 29.9 µM (inactive)
4,CCOc1nc(C#N)nc(N2CCCCC2)n1,> 29.9 µM (inactive)
5,COc1ccc(OC)c(CCNC(=O)Cn2nc(C)c3c(C)n(-c4ccc(C)cc4)nc3c2=O)c1,> 29.9 µM (inactive)
6,Fc1ccc(NC(=S)N2CCCN(c3ccc(C(F)(F)F)cn3)CC2)c(F)c1,> 29.9 µM (inactive)
7,Nc1nonc1-n1nnc(C(=O)N/N=C/c2cc(Br)ccc2O)c1CSC1=NCCS1,> 29.9 µM (inactive)
8,Cc1[nH]c(=O)c(C#N)cc1-c1ccccc1,> 29.9 µM (inactive)
9,COc1ccc(NS(=O)(=O)c2ccc(NC(=O)c3ccc(CN4CCOCC4)cc3)cc2)cc1,> 29.9 µM (inactive)
10,CC(C)(C)NC(=O)COC(=O)c1snc(C(=O)NC2CCCCC2)c1N,> 29.9 µM (inactive)
11,CCCCc1ccc(NC(=O)c2ccc(N(C)S(C)(=O)=O)cc2)cc1,> 29.9 µM (inactive)
12,CCCCCn1c(=O)[nH]c2cc(C(=O)N3CCN(Cc4ccc5c(c4)OCO5)CC3)ccc2c1=O,> 29.9 µM (inactive)
13,COc1cc(CSc2nnnn2-c2ccc(C)cc2)cc(OC)c1OC,> 29.9 µM (inactive)
14,Cc1cc(C)nc(SCC(=O)Nc2ccnc3ccccc23)n1,> 29.9 µM (inactive)
15,O=C(Cc1ccc(Cl)cc1Cl)Nc1ccncc1Cl,> 29.9 µM (inactive)
16,CC1(C)CC2CC(C)(CN2S(=O)(=O)c2ccc(C(=O)Nc3cccc(S(=O)(=O)N4CCOCC4)c3)cc2)C1 (configuration not stated),> 29.9 µM (inactive)
17,Cn1nc(C(C)(C)C)cc1C(=O)NCc1ccc(N2CCCC2=O)cc1,> 29.9 µM (inactive)
18,CNc1ccccc1C(C)(C)c1cc(-c2ccc(F)cc2)no1,19.6 µM (inactive)
19,CC1CC(=O)NN=C1c1ccc(N)c([N+](=O)[O-])c1 (configuration not stated),> 29.9 µM (inactive)

row,Compound,IC50
1,Cc1nn(C)c(Cl)c1NC(=O)OCc1ccc(Cl)cc1Cl,> 29.9 µM (inactive)
2,CC(C)(C)CN1CCN(Cc2nc(-c3ccc(F)cc3)cs2)CC1CCO (configuration not stated),> 29.9 µM (inactive)
3,Cc1oc(-c2ccc(Cl)cc2)nc1CSCC(=O)NC1CCN(Cc2ccccc2)CC1,26.8 µM (inactive)
4,Cc1nc2ccccc2n1Cc1ccc(Cl)cc1,> 29.9 µM (inactive)
5,CCOC(=O)Cc1csc(NC(=O)c2cc(=O)c3ccccc3o2)n1,> 29.9 µM (inactive)
6,O=C(CSc1nnnn1C1CC2CCC1C2)Nc1ccnc2ccccc12 (configuration not stated),> 29.9 µM (inactive)
7,CCCOC(=O)c1ccc(OCC(O)Cn2c(C)nc3ccccc32)cc1 (configuration not stated),> 29.9 µM (inactive)
8,Cc1cccc(Cl)c1NC(=O)N1CCCN(c2nc3ccc(Cl)cc3s2)CC1,> 29.9 µM (inactive)
9,CC(=O)c1cn(CC(=O)NCCc2c[nH]c3ccccc23)c2ccccc12,> 29.9 µM (inactive)
10,Cc1ccccc1Cn1c(C)nc2ccccc21,> 29.9 µM (inactive)
11,Cc1cc(C(=O)CSc2nc(N)cc(=O)[nH]2)c(C)n1-c1ccc(OC(F)F)cc1,> 29.9 µM (inactive)
12,N#Cc1cc(-c2ccccc2)oc1NC(=O)c1ccco1,> 29.9 µM (inactive)
13,COc1cc2c(cc1OC)[C@@H]1C(=O)c3ccc4c(c3O[C@@H]1CO2)C[C@H](C(C)C)O4,> 29.9 µM (inactive)
14,CC(=O)c1c(C)[nH]c(C(=O)COc2cc(C)ccc2C(C)C)c1C,> 29.9 µM (inactive)
15,CCOC(=O)c1[nH]c2ccc(OC)cc2c1NS(=O)(=O)c1ccc(Cl)s1,> 29.9 µM (inactive)
16,O=C(COc1ccc(C(=O)c2ccccc2)cc1)Nc1cccnc1,> 29.9 µM (inactive)
17,O=C(Nc1nc(-c2ccc(Cl)cc2Cl)cs1)c1ccc(OCC2CCCO2)cc1 (configuration not stated),> 29.9 µM (inactive)
18,CSc1ccc(C(=O)C2CCCN(C(=O)CCc3c(C)nn(C)c3C)C2)cc1 (configuration not stated),> 29.9 µM (inactive)
19,CCN(CC)S(=O)(=O)c1cc(NC(=O)CNc2cccc(S(=O)(=O)N3CCOCC3)c2)ccc1C,> 29.9 µM (inactive)
